{"source": "patent US7371766B2", "about": "“Curcumin analogs with anti-tumor and anti-angiogenic properties” (Emory University, priority 1999, dated 2008)", "test_in_all_cases": "cells", "key": {"KM12": {"tested_on": "KM12", "conditions": "Homo sapiens, KM12, 48 h"}, "NCI-H23": {"tested_on": "NCI-H23", "conditions": "Homo sapiens, NCI-H23, 48 h"}, "HCT-116": {"tested_on": "HCT-116", "conditions": "Homo sapiens, HCT-116, 48 h"}, "SR": {"tested_on": "SR", "conditions": "Homo sapiens, 48 h"}, "LOX IMVI": {"tested_on": "LOX IMVI", "conditions": "Homo sapiens, 48 h"}, "HS 578T": {"tested_on": "HS 578T", "conditions": "Homo sapiens, 48 h"}, "A549": {"tested_on": "A549", "conditions": "Homo sapiens, A549, 48 h"}, "HCC-2998": {"tested_on": "HCC-2998", "conditions": "Homo sapiens, HCC 2998, 48 h"}, "IGROV1": {"tested_on": "IGROV1", "conditions": "Homo sapiens, IGROV-1, 48 h"}, "RPMI-8226": {"tested_on": "RPMI-8226", "conditions": "Homo sapiens, RPMI-8226, 48 h"}, "OVCAR-8": {"tested_on": "OVCAR-8", "conditions": "Homo sapiens, OVCAR-8, 48 h"}, "UO-31": {"tested_on": "UO-31", "conditions": "Homo sapiens, UO-31, 48 h"}, "SW-620": {"tested_on": "SW-620", "conditions": "Homo sapiens, SW-620, 48 h"}, "[1]": {"tested_on": "Sixty human tumor cell lines", "conditions": "48 h"}, "K-562": {"tested_on": "K-562", "conditions": "Homo sapiens, K562, 48 h"}, "OVCAR-3": {"tested_on": "OVCAR-3", "conditions": "Homo sapiens, OVCAR-3, 48 h"}, "786-0": {"tested_on": "786-0", "conditions": "Homo sapiens, 786-0, 48 h"}, "NCI-H460": {"tested_on": "NCI-H460", "conditions": "Homo sapiens, NCI-H460, 48 h"}, "SK-MEL-5": {"tested_on": "SK-MEL-5", "conditions": "Homo sapiens, SK-MEL-5, 48 h"}, "OVCAR-4": {"tested_on": "OVCAR-4", "conditions": "Homo sapiens, OVCAR-4, 48 h"}, "SF-539": {"tested_on": "SF-539", "conditions": "Homo sapiens, SF-539, 48 h"}, "SK-MEL-28": {"tested_on": "SK-MEL-28", "conditions": "Homo sapiens, SK-MEL-28, 48 h"}, "MOLT-4": {"tested_on": "MOLT-4", "conditions": "Homo sapiens, MOLT-4, 48 h"}, "MDA-N": {"tested_on": "MDA-N", "conditions": "Homo sapiens, 48 h"}, "CAKI-1": {"tested_on": "CAKI-1", "conditions": "Homo sapiens, CAKI-1, 48 h"}, "MCF-7": {"tested_on": "MCF-7", "conditions": "Homo sapiens, MCF7, 48 h"}, "SK-OV-3": {"tested_on": "SK-OV-3", "conditions": "Homo sapiens, SK-OV-3, 48 h"}, "MDA-MB-435": {"tested_on": "MDA-MB-435", "conditions": "Homo sapiens, MDA-MB-435, 48 h"}, "[2]": {"conditions": "read-out: Median Growth Inhibitory Concentration (GI50)"}, "[3]": {"conditions": "read-out: Median Lethal Concentration (LC50)"}}, "data": [{"smiles": "OC(CCc1ccc(F)cc1F)CCc1ccc(F)cc1F", "note": "[EF19, 1,5-Bis(2,4-difluorophenyl)-pentan-3-ol]", "values": [{"measurement": "GI50", "setting": "KM12; [2]", "value": 17.6, "unit": "µM"}, {"measurement": "CC50", "setting": "KM12; [3]", "value": 56.1, "unit": "µM"}, {"measurement": "GI50", "setting": "NCI-H23; [2]", "value": 22.8, "unit": "µM"}, {"measurement": "CC50", "setting": "NCI-H23; [3]", "value": 96.8, "unit": "µM"}, {"measurement": "GI50", "setting": "HCT-116; [2]", "value": 17.8, "unit": "µM"}, {"measurement": "CC50", "setting": "HCT-116; [3]", "value": 56.3, "unit": "µM"}, {"measurement": "GI50", "setting": "SR; [2]", "value": 22.7, "unit": "µM"}, {"measurement": "CC50", "setting": "SR; [3]", "value": 82.6, "unit": "µM"}, {"measurement": "GI50", "setting": "LOX IMVI; [2]", "value": 20, "unit": "µM"}, {"measurement": "CC50", "setting": "LOX IMVI; [3]", "value": 74.4, "unit": "µM"}, {"measurement": "GI50", "setting": "HS 578T; [2]", "value": 21.9, "unit": "µM"}, {"measurement": "CC50", "setting": "HS 578T; [3]", "value": "> 100", "unit": "µM"}, {"measurement": "GI50", "setting": "A549; [2]", "value": 18, "unit": "µM"}, {"measurement": "CC50", "setting": "A549; [3]", "value": 65.8, "unit": "µM"}, {"measurement": "GI50", "setting": "HCC-2998; [2]", "value": 17.7, "unit": "µM"}, {"measurement": "CC50", "setting": "HCC-2998; [3]", "value": 56.1, "unit": "µM"}, {"measurement": "GI50", "setting": "IGROV1; [2]", "value": 17.2, "unit": "µM"}, {"measurement": "CC50", "setting": "IGROV1; [3]", "value": 55.6, "unit": "µM"}, {"measurement": "GI50", "setting": "RPMI-8226; [2]", "value": 21.7, "unit": "µM"}, {"measurement": "CC50", "setting": "RPMI-8226; [3]", "value": "> 100", "unit": "µM"}, {"measurement": "GI50", "setting": "OVCAR-8; [2]", "value": 18, "unit": "µM"}, {"measurement": "CC50", "setting": "OVCAR-8; [3]", "value": 67.3, "unit": "µM"}, {"measurement": "GI50", "setting": "UO-31; [2]", "value": 18.2, "unit": "µM"}, {"measurement": "CC50", "setting": "UO-31; [3]", "value": 56.6, "unit": "µM"}, {"measurement": "GI50", "setting": "SW-620; [2]", "value": 17.7, "unit": "µM"}, {"measurement": "CC50", "setting": "SW-620; [3]", "value": 63.7, "unit": "µM"}, {"measurement": "GI50", "setting": "[1]; read-out: Median Growth Inhibitory Concentration (GI50), Mean", "value": 17.8, "unit": "µM"}, {"measurement": "CC50", "setting": "[1]; read-out: Median Lethal Concentration (LC50), Mean", "value": 64.6, "unit": "µM"}, {"measurement": "GI50", "setting": "K-562; [2]", "value": 19, "unit": "µM"}, {"measurement": "CC50", "setting": "K-562; [3]", "value": 90.1, "unit": "µM"}, {"measurement": "GI50", "setting": "OVCAR-3; [2]", "value": 17.9, "unit": "µM"}, {"measurement": "CC50", "setting": "OVCAR-3; [3]", "value": 59.3, "unit": "µM"}, {"measurement": "GI50", "setting": "786-0; [2]", "value": 17, "unit": "µM"}, {"measurement": "CC50", "setting": "786-0; [3]", "value": 55.4, "unit": "µM"}, {"measurement": "GI50", "setting": "NCI-H460; [2]", "value": 17.9, "unit": "µM"}, {"measurement": "CC50", "setting": "NCI-H460; [3]", "value": 57.5, "unit": "µM"}, {"measurement": "GI50", "setting": "SK-MEL-5; [2]", "value": 17.1, "unit": "µM"}, {"measurement": "CC50", "setting": "SK-MEL-5; [3]", "value": 55.5, "unit": "µM"}, {"measurement": "GI50", "setting": "OVCAR-4; [2]", "value": 17.4, "unit": "µM"}, {"measurement": "CC50", "setting": "OVCAR-4; [3]", "value": 65.1, "unit": "µM"}, {"measurement": "GI50", "setting": "SF-539; [2]", "value": 16.9, "unit": "µM"}, {"measurement": "CC50", "setting": "SF-539; [3]", "value": 55.3, "unit": "µM"}, {"measurement": "GI50", "setting": "SK-MEL-28; [2]", "value": 17.1, "unit": "µM"}, {"measurement": "CC50", "setting": "SK-MEL-28; [3]", "value": 55.6, "unit": "µM"}, {"measurement": "GI50", "setting": "MOLT-4; [2]", "value": 2.6, "unit": "µM"}, {"measurement": "CC50", "setting": "MOLT-4; [3]", "value": 75.6, "unit": "µM"}, {"measurement": "GI50", "setting": "MDA-N; [2]", "value": 16.9, "unit": "µM"}, {"measurement": "CC50", "setting": "MDA-N; [3]", "value": 55.2, "unit": "µM"}, {"measurement": "GI50", "setting": "CAKI-1; [2]", "value": 21.8, "unit": "µM"}, {"measurement": "CC50", "setting": "CAKI-1; [3]", "value": 67.8, "unit": "µM"}, {"measurement": "GI50", "setting": "MCF-7; [2]", "value": 17.7, "unit": "µM"}, {"measurement": "CC50", "setting": "MCF-7; [3]", "value": 57.1, "unit": "µM"}, {"measurement": "GI50", "setting": "SK-OV-3; [2]", "value": 18.5, "unit": "µM"}, {"measurement": "CC50", "setting": "SK-OV-3; [3]", "value": 65.9, "unit": "µM"}, {"measurement": "GI50", "setting": "MDA-MB-435; [2]", "value": 17.1, "unit": "µM"}, {"measurement": "CC50", "setting": "MDA-MB-435; [3]", "value": 55.6, "unit": "µM"}]}]}
